Laboratory results taken from patent US20070281938A1, “Inhibitors of 11-Beta-Hydroxy Steroid Dehydrogenase Type 1” (Amgen Inc., priority 2004, published 2007).

Target: T1, human 11-β-hydroxysteroid dehydrogenase type-1 enzyme (11-β-HSD1) (Homo sapiens, UniProt P28845)
T1 construct: made in house; host or cells: Pichia pastoris (cell homogenate or microsomes)
Experiment: Scintillation Proximity Assay, 11-β-HSD1 enzyme assay (Ki)
Format: biochemical
Conditions: human 11-β-HSD1 expressed in Pichia pastoris; Ki calculated from IC50 (Cheng-Prusoff)
From the text: [1,2(n)—^3H]-cortisone was purchased from Amersham Pharmacia Biotech. Anti-cortisol monoclonal mouse antibody, clone 6D6.7 was obtained from Immunotech and Scintillation proximity assay (SPA) beads coated with monoclonal antimouse antibodies were from Amersham Pharmacia Biotech. NADPH, tetrasodium salt was from Calbiochem and glucose-6-phosphate (G-6-P) was supplied by Sigma. The human 11-β-hydroxysteroid dehydrogenase type-1 enzyme (11-β-HSD1) was expressed in Pichiapastoris. 18-β-glycyrrhetinic acid (GA) was obtained from Sigma. The serial dilutions of the compounds were performed on a Tecan Genesis RSP 150. Compounds to be tested were dissolved in DMSO (1 mM) and diluted in 50 mM Tris-HCl, pH 7.2 containing 1 mM EDTA.
The multiplication of plates was done on a WallacQuadra. The amount of the product [^3H]-cortisol, bound to the beads was determined in a Packard, Top Count microplate liquid scintillation counter.
The 11-β-HSD1 enzyme assay was carried out in 96 well microtiter plates (Packard, Optiplate) in a total well volume of 220 μL and contained 30 mM Tris-HCl, pH 7.2 with 1 mM EDTA, a substrate mixture tritiated Cortisone/NADPH (175 nM/181 μM), G-6-P (1 mM) and inhibitors in serial dilutions (9 to 0.15 μM). […]
The plates were covered with plastic film and incubated on a shaker for 30 minutes, at room temperature, before counting. The amount of [^3H]-cortisol, bound to the beads was determined in a microplate liquid scintillation counter. […] The Ki value is calculated from IC50 and the Km value is calculated using the Cheng Prushoff equation (with reversible inhibition that follows the Michaelis-Menten equation): […] [Cheng, Y. C.; Prushoff, W. H. Biochem. Pharmacol. 1973, 22, 3099-3108]. The IC50 is measured experimentally in an assay wherein the decrease of the turnover of cortisone to cortisol is dependent on the inhibition potential of each substance. […]

T1 sequence (P28845 whole entry): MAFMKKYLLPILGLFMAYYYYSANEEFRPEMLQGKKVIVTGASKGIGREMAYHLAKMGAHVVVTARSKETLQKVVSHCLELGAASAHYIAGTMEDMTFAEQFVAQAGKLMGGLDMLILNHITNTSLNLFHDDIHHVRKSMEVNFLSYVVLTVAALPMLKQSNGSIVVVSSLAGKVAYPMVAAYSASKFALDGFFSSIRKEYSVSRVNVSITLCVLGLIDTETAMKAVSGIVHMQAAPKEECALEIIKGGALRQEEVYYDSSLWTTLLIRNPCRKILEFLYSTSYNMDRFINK

| Ki | SMILES |
| --- | --- |
| 250 nM | O=C1N=C(NC2CCCCCC2)SC12CCC2 [Example 10, 6-(Cycloheptylamino)-5-thia-7-azaspiro[3.4]oct-6-en-8-one] |
| 107 nM | CC1(C)SC(NCC2CCCCC2)=NC1=O [Example 14, 2-[(cyclohexylmethyl)amino]-5,5-dimethyl-1,3-thiazol-4(5H)-one] |
| 174 nM | CC(C)C1SC(NC2(c3ccc(Cl)cc3)CCC2)=NC1=O (stereo not drawn) [Example 48, 2-{[1-(4-Chlorophenyl)cyclobutyl]amino}-5-isopropyl-1,3-thiazol-4(5H)-one] |
